Measured values from US8946234B2, “Halogen-substituted compounds” (Bayer CropScience AG, priority 2008, dated 2015).

test: physchem; type: physicochemical; conditions: not given
Outline: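 Following EEC Directive 79/831 Annex V.A8, logP is obtained from retention on a 1.8 micron C18 column (50×4.6 mm) at 55 °C and 2.0 ml/min. Elution ran 10→95% acetonitrile (0.1% formic acid) against water (0.09% formic acid) in 4.25 min, held 1.25 min; mass detection used.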

SMILES | logP
CN(C(=O)c1cnc(C(F)(F)C(F)(F)F)nc1C(F)(F)F)c1ccc(Cl)c(C(=O)NC2CC2)c1 [Ib-38] | 3.23^a)
Cn1nc(C(F)(F)C(F)(F)F)c(C(F)(F)F)c1C(=O)Nc1ccc(I)c(C(=O)NCc2ccccc2)c1 [Ik-184] | 4.07^a)
CN(C(=O)c1c(C(F)(F)F)c(C(F)(F)C(F)(F)F)nn1C)c1ccc(Cl)c(C(=O)NCc2ccccc2)c1 [Ik-134] | 3.94^a)
COC(=O)COC(=O)c1cc(NC(=O)c2c(C(F)(F)F)c(C(F)(F)C(F)(F)F)nn2C)ccc1Cl [Ik-107] | 4.03^a)
Cn1nc(C(F)(F)C(F)(F)F)c(C(F)(F)F)c1C(=O)Nc1cc(F)c(Br)c(C(=O)NCc2ccccc2)c1 [Ik-229] | 4.14^a)
Cc1nc(C(F)(F)F)ncc1C(=O)Nc1ccc(Cl)c(C(=O)NCC(F)(F)F)c1 [Ib-20] | 2.65^a)
Cn1nc(C(F)(F)C(F)(F)F)c(C(F)(F)F)c1C(=O)Nc1cc(F)c(F)c(C(=O)NC2CC2)c1 [Ik-140] | 3.60^a)
Cn1nc(C(F)(F)C(F)(F)F)c(C(F)(F)F)c1C(=O)Nc1cc(C(=O)NCC(F)(F)F)c(Cl)cc1Cl [Ik-171] | 3.97^a)
Cn1nc(C(F)(F)C(F)(F)F)c(C(F)(F)F)c1C(=O)Nc1cccc(C(=O)NC2CC2)c1 [Ik-13] | 3.15^a)
O=C(NCc1ccccc1)c1cc(NC(=O)c2cnc(C(F)(F)C(F)(F)F)nc2C(F)(F)F)ccc1Cl [Ib-11] | 3.78^a)
Cn1nc(OCC(F)(F)F)cc1C(=O)Nc1ccc(Cl)c(C(=O)NCC(F)(F)F)c1 [Ik-246] | 2.92^a)
Cn1nc(C(F)(F)C(F)(F)F)c(C(F)(F)F)c1C(=O)Nc1cc(Br)cc(C(=O)NCc2ccccc2)c1 [Ik-222] | 4.35^a)
C=CCNC(=O)c1cc(NC(=O)c2c(C(F)(F)F)c(C(F)(F)C(F)(F)F)nn2C)ncc1Br [Ik-315] | 3.42^a)
Cn1nc(C(F)(F)F)c(Cl)c1C(=O)Nc1ccc(Cl)c(C(=O)NCC=CCl)c1 [Ik-19] | 3.22^a)
Cn1nc(C(F)(F)C(F)(F)F)c(C(F)(F)F)c1C(=O)Nc1cc(C(=O)NCc2ccccc2)c(Cl)cc1Cl [Ik-150] | 4.23^a)
O=C(NCC(F)(F)F)c1cc(NC(=O)c2cnc(C(F)(F)C(F)(F)F)nc2C(F)(F)C(F)(F)F)ccc1Cl [Ib-34] | 3.94^a)
CSc1c(F)cc(NC(=O)c2c(C(F)(F)F)c(C(F)(F)C(F)(F)F)nn2C)cc1C(=O)NCC(F)(F)F [Ik-193] | 3.90^a)
Cn1nc(C(F)(F)C(F)(F)F)c(C(F)(F)F)c1C(=O)Nc1ccc(Cl)c(C(=O)NCc2ccccc2)c1Cl [Ik-149] | 4.33^a)
CC#CC(C)(C)NC(=O)c1cc(NC(=O)c2c(C(F)(F)F)c(C(F)(F)C(F)(F)F)nn2C)ccc1Cl [Ik-81] | 4.03^a)
CSc1c(Cl)cc(NC(=O)c2c(C(F)(F)F)c(C(F)(F)C(F)(F)F)nn2C)cc1C(=O)NCC(F)(F)F [Ik-203] | 4.15^a)
Cn1nc(C(F)(F)F)c(Br)c1C(=O)Nc1ccc(Cl)c(C(=O)NC2CC2F)c1 (centres unmarked) [Ik-159] | 2.82^a)
Cn1nc(C(F)(F)C(F)(F)F)c(C(F)(F)F)c1C(=O)Nc1ccc(Cl)c(C(=O)NCCF)c1 [Ik-88] | 3.21^a)
Cn1nc(C(F)(F)C(F)(F)C(F)(F)F)c(Br)c1C(=O)Nc1ccc(Cl)c(C(=O)NC2CC2)c1 [Ik-73] | 3.58^a)
CCn1nc(C(F)(F)C(F)(F)F)c(C(F)(F)F)c1C(=O)Nc1ccc(Cl)c(C(=O)NC2CC2)c1 [Ik-217] | 3.63^a)

SMILES | logP
Cn1nc(C(F)(F)C(F)(F)F)c(C(F)(F)F)c1C(=O)Nc1cc(Br)c(Br)c(C(=O)NCc2ccccc2)c1 [Ik-208] | 4.42^a)
Cn1nc(OC(F)F)c(I)c1C(=O)Nc1ccc(Cl)c(C(=O)NC2CC2)c1 [Ik-240] | 2.54^a)
Cn1nc(C2CC2)c(C(F)(F)F)c1C(=O)Nc1ccc(Cl)c(C(=O)NC2CC2)c1 [Ik-261] | 2.78^a)
Cc1nc(C(F)(F)F)ccc1C(=O)Nc1ccc(Cl)c(C(=O)NCC(F)(F)F)c1 [Ir-11] | 2.67^a)
O=C(NCC=CCl)c1cc(NC(=O)c2cnc(C(F)(F)C(F)(F)C(F)(F)F)nc2C(F)(F)F)ccc1Cl [Ib-17] | 3.92^a)
O=C(NC1CC1)c1cc(NC(=O)c2nccc(C(F)(F)F)c2Cl)ccc1Cl [Ie-1] | 2.48^a)
Cn1nc(-c2ccccc2Cl)c(Br)c1C(=O)Nc1ccc(Cl)c(C(=O)NCC(F)(F)F)c1 [Ik-252] | 3.41^a)
CSc1c(Br)cc(NC(=O)c2c(C(F)(F)F)c(C(F)(F)C(F)(F)F)nn2C)cc1C(=O)NCC(F)(F)F [Ik-200] | 4.22^a)
O=C(NCC(F)(F)F)c1cc(NC(=O)c2cnc(C(F)(F)C(F)(F)F)nc2C2CC2)ccc1Cl [Ib-31] | 3.65^a)
CC(C)NC(=O)c1cc(NC(=O)c2nccc(C(F)(F)F)c2Cl)ccc1Cl [Ie-2] | 2.72^a)
Cn1nc(C(F)(F)C(F)(F)F)c(C(F)(F)F)c1C(=O)Nc1cc(F)c(F)c(C(=O)NCc2ccccc2)c1 [Ik-97] | 4.19^a)
O=C(NCC(F)(F)F)c1cc(NC(=O)c2ncc(C(F)(F)F)cc2Cl)ccc1Cl [Ii-3] | 2.86^a)
Cn1nc(C(F)(F)C(F)(F)F)c(C(F)(F)F)c1C(=O)Nc1cc(F)c(S(C)(=O)=O)c(C(=O)NC2CC2)c1 [Ik-194] | 2.92^a)
Cn1nc(C(F)(F)C(F)(F)F)c(C(F)(F)F)c1C(=O)Nc1cc(F)c(I)c(C(=O)NCc2ccccc2)c1 [Ik-227] | 4.20^a)
Cn1nc(C(F)(F)C(F)(F)F)c(C(F)(F)F)c1C(=O)Nc1cc(C(=O)NC2CC2)c(Cl)cc1F [Ik-143] | 3.39^a)
Cn1nc(OC(F)F)c(Cl)c1C(=O)Nc1ccc(Cl)c(C(=O)NCC(F)(F)F)c1 [Ik-239] | 2.89^a)
Cn1nc(C(F)(F)F)c(Br)c1C(=O)Nc1ccc(Cl)c(C(=O)NCC(F)(F)F)c1 [Ik-160] | 3.17^a)
Cn1nc(C(F)(F)F)c(I)c1C(=O)Nc1ccc(Cl)c(C(=O)NC2CC2)c1 [Ik-182] | 2.70^a)
Cn1nc(C2CC2)c(Br)c1C(=O)Nc1ccc(Cl)c(C(=O)NC2CC2)c1 [Ik-235] | 2.60^a)
Cn1nc(C(F)(F)C(F)(F)F)c(C(F)(F)F)c1C(=O)Nc1ccc([N+](=O)[O-])c(C(=O)NC2CC2)c1 [Ik-180] | 3.27^a)
Cn1nc(C(F)(F)C(F)(F)F)c(C(F)(F)F)c1C(=O)Nc1cc(C(=O)NCC(F)(F)F)c(F)cc1Cl [Ik-151] | 3.83^a)
O=C(NC1CC1)c1cc(NC(=O)c2c(C(F)(F)F)c(C(F)(F)C(F)(F)F)nn2-c2ccccc2)ccc1Cl [Ik-176] | 4.00^a)
Cc1nc(C(F)(F)C(F)(F)F)ncc1C(=O)Nc1ccc(Cl)c(C(=O)NCC=CCl)c1 [Ib-25] | 3.2^a)

same assay, conditions: HPLC method a), eluent acetonitrile/water with formic acid; read-out: logP

SMILES | chromatographic logP
O=C(O)c1cnc(C(F)(F)C(F)(F)C(F)(F)F)nc1C(F)(F)F [2-(Heptafluoropropyl)-4-(trifluoromethyl)pyrimidine-5-carboxylic acid] | 2.23
CCOC(=O)c1cnc(C(F)(F)C(F)(F)C(F)(F)F)nc1C(F)(F)F [Ethyl 2-(heptafluoropropyl)-4-(trifluoromethyl)pyrimidine-5-carboxylate] | 4.32

same assay, conditions: HPLC phase inversion (reversed-phase) C18 column, HPLC method a), eluent acetonitrile/water with formic acid; read-out: logP

SMILES | chromatographic logP
Cn1nc(OC(F)F)c(C(F)(F)F)c1C(=O)Nc1ccc(Cl)c(C(=O)NCC(F)(F)F)c1 [Ik-126, N-{4-Chloro-3-[(2,2,2-trifluoroethyl)carbamoyl]phenyl}-3-(difluoromethoxy)-1-methyl-4-(trifluoromethyl)-1H-pyrazole-5-carboxamide] | 3.01
O=C(O)c1cnc(C(F)(F)C(F)(F)F)nc1C(F)F [4-(Difluoromethyl)-2-(pentafluoroethyl)pyrimidine-5-carboxylic acid] | 1.8
CCOC(=O)c1cc(NC(=O)c2nc(C)nc(C(F)(F)C(F)(F)F)c2C(F)(F)F)ccc1Cl [ethyl 2-chloro-5-({[2-methyl-6-(pentafluoroethyl)-5-(trifluoromethyl)pyrimidin-4-yl]-carbonyl}amino)benzoate] | 4.55
O=C(NC1CC1)c1cc(NC(=O)c2ncc(Cl)cc2C(F)(F)F)ccc1Cl [5-chloro-N-[4-chloro-3-(cyclopropylcarbamoyl)phenyl]-3-(trifluoromethyl)pyridine-2-carboxamide] | 2.55
Cc1nc(C(F)(F)F)ncc1C(=O)O [4-Methyl-2-(trifluoromethyl)pyrimidine-5-carboxylic acid] | 1.26
Cn1nc(C(F)(F)C(F)(F)F)c(Br)c1C(=O)O [4-Bromo-1-methyl-3-pentafluoroethyl-1H-pyrazole-5-carboxylic acid] | 4.69
COC(=O)c1cc(NC(=O)c2c(C(F)(F)F)c(C(F)(F)C(F)(F)F)nn2C)ccc1Cl [Methyl 2-chloro-5-({[1-methyl-3-(pentafluoroethyl)-4-(trifluoromethyl)-1H-pyrazol-5-yl]carbonyl}amino)benzoate] | 4.05
Cn1nc(C(F)C2CC2)c(C(F)(F)F)c1C(=O)Nc1ccc(Cl)c(C(=O)NC2CC2)c1 (centres unmarked) [Ik-233, N-[4-Chloro-3-(cyclopropylcarbamoyl)phenyl]-3-[cyclopropyl(fluoro)methyl]-1-methyl-4-(trifluoromethyl)-1H-pyrazole-5-carboxamide] | 2.76
Cn1nc(C(F)(F)C(F)(F)F)c(C(F)(F)F)c1C(=O)Nc1ccc(Br)c(C(=O)N[C@@H]2C[C@@H]2F)n1 [Ik-127, N-{3-Bromo[2-(1R,2S)-2-fluorocycloprop-1-ylcarbamoyl]pyrid-6-yl}-1-methyl-3-(pentafluoroethyl)-4-(trifluoromethyl)-1H-pyrazole-5-carboxamide] | 3.29
COC(=O)c1c(Cl)cnc(N)c1Cl [methyl 2-amino-3,5-dichloroisonicotinate] | 1.75
Cc1nc(C(=O)Nc2ccc(Cl)c(C(=O)O)c2)c(C(F)(F)F)c(C(F)(F)C(F)(F)F)n1 [2-chloro-5-({[2-methyl-6-(pentafluoroethyl)-5-(trifluoromethyl)pyrimidin-4-yl]carbonyl}amino)benzoic acid] | 3.3

same assay, conditions: HPLC phase inversion (reversed-phase) C18 column, HPLC on C18 phase inversion column, method a); read-out: logP

SMILES | chromatographic logP
Cn1nc(OC(F)F)c(C(F)(F)F)c1C(=O)Nc1ccc(Cl)c(C(=O)NCC(F)(F)F)c1 [Ik-126, N-{4-Chloro-3-[(2,2,2-trifluoroethyl)carbamoyl]phenyl}-3-(difluoromethoxy)-1-methyl-4-(trifluoromethyl)-1H-pyrazole-5-carboxamide] | 3.01
Cn1nc(C(F)(F)C(F)(F)F)c(C(F)(F)F)c1C(=O)Nc1ccc(Br)c(C(=O)N[C@@H]2C[C@@H]2F)n1 [Ik-127, N-{3-Bromo[2-(1R,2S)-2-fluorocycloprop-1-ylcarbamoyl]pyrid-6-yl}-1-methyl-3-(pentafluoroethyl)-4-(trifluoromethyl)-1H-pyrazole-5-carboxamide] | 3.29
